Results from patent publication US20080254136A1, “Antiprotozoal Agent” (JAPAN HEALTH SCIENCES FOUNDATION, priority 2004, published 2008).
Values after ≈ are worked out from the molar mass of the structure shown. Like-named read-outs stand apart in the source and are kept apart here.

Test system: leishmania
Experiment: antileishmanial activity measurement (leishmania culture, Tetracolor ONE, OD 450-630 nm)
Assay type: cell-based
Conditions: leishmania culture 2×10^5/ml, 27° C., 5% CO2, 48 hours, then Tetracolor ONE 6 hours, mean of 3 wells
Excerpt: A hexane extract from Lithospermi Radix (obtained by the method used for Reference example 1), a hexane extract from a mixture of Lithospermi Radix and Angelicae Radix (obtained by the method used for Reference example 2), shikonin (Nagara Science), acetylshikonin (Nagara Science), β,β-dimethylacrylshikonin (Nagara Science), isobutyrylshikonin (Nagara Science), α-methyl-n-butyrylshikonin (Nagara Science), isovalerylshikonin (Nagara Science), β-hydroxyisovalerylshikonin (Nagara Science), and alkanine (Wako Pure Chemical Industries, Ltd.) were subjected to antileishmanial activity measurement.
First, 1 to 5 mg of each sample was dissolved in dimethylsulfoxide (DMSO) such that DMSO solutions (10 mg/ml) were prepared. Then, the solutions were diluted with Medium 199 (800 μg/ml) and allowed to pass through a membrane filter. The resulting test solutions were adjusted to 9 different concentrations. The test solutions (50 μl) at different concentrations and a leishmania culture solution (50 μl) that had been adjusted to a final concentration of 2×10^5/ml were introduced into wells of a microtiter plate such that the total volume of each culture solution was 100 μl in each well. After incubation at 27° C. in the presence of 5% CO2 for 48 hours, 10 μl of a Tetracolor ONE reagent was added thereto, followed by incubation for 6 hours. Thereafter, the OD value (450-630 nm) was measured using a microplate reader. Each sample at each concentration (3 wells) was subjected to measurement such that the mean value was obtained. Then, a graph was created such that the IC50 value was obtained.

SMILES | IC50 | IC50 (read-out: IC50)
CC(=O)O[C@H](CC=C(C)C)C1=CC(=O)c2c(O)ccc(O)c2C1=O [Acetylshikonin, acetylshikonin] | 0.026 µg/mL (≈ 0.0787 µM) | 
CC(C)=CC[C@H](O)C1=CC(=O)c2c(O)ccc(O)c2C1=O [Alkanine, alkanine] |  | 0.028 µg/mL (≈ 0.0971 µM)
CC(C)=CC[C@@H](OC(=O)CC(C)(C)O)C1=CC(=O)c2c(O)ccc(O)c2C1=O [β-hydroxyisovalerylshikonin] | 0.19 µg/mL (≈ 0.489 µM) | 
CC(C)=CCC(OC(=O)CC(C)C)C1=CC(=O)c2c(O)ccc(O)c2C1=O (centres unmarked) [Isovalerylshikonin, isovalerylshikonin] | 0.02 µg/mL (≈ 0.0537 µM) | 
CC(C)=CC[C@@H](O)C1=CC(=O)c2c(O)ccc(O)c2C1=O [Shikonin, shikonin] | 0.09 µg/mL (≈ 0.312 µM) | 
CC(C)=CCC(OC(=O)C=C(C)C)C1=CC(=O)c2c(O)ccc(O)c2C1=O (stereo not drawn) [β,β-dimethylacrylshikonin] | 0.014 µg/mL (≈ 0.0378 µM) | 
CC(C)=CC[C@@H](OC(=O)C(C)C)C1=CC(=O)c2c(O)ccc(O)c2C1=O [Isobutyrylshikonin, isobutyrylshikonin] | 0.017 µg/mL (≈ 0.0474 µM) | 
CCC(C)C(=O)OC(CC=C(C)C)C1=CC(=O)c2c(O)ccc(O)c2C1=O (stereo not drawn) [α-methyl-n-butyrylshikonin] | 0.014 µg/mL (≈ 0.0376 µM) | 
